Source: patent US12240816B2, “Deuterated compounds and uses thereof” (Aldeyra Therapeutics, Inc., priority 2015, dated 2025)
Several values for one entry are separate records, joined by “and”; a condition that tells them apart may be missing. Equal values may be shown once. Entries after “also recorded” stand apart in the source; their conditions may differ. Marks after values point to notes of the source that are not given here.

Assays:
rat hippocampal cultures [1] = experiment: cells; assay type: cell-based; details: DMSO
rat hippocampal cultures [2] = experiment: Propidium iodide cell death assay, protection from hydrogen peroxide toxicity; assay type: cell-based; details: DMSO; for Cell death (Propidium Iodide), % of Control / Cell death (Propidium Iodide), Mean / Cell death (Propidium Iodide), individual values: 5 hours
[3] = biological target: enzyme and uptake assay panel targets (Table 36) (Homo sapiens, UniProt Q9BYF1); experiment: biochemical; assay type: biochemical; details: ACE-2 (h); reference compound
Chain of enzyme and uptake assay panel targets (Table 36) (Homo sapiens, UniProt Q9BYF1) (Q9BYF1 18-805): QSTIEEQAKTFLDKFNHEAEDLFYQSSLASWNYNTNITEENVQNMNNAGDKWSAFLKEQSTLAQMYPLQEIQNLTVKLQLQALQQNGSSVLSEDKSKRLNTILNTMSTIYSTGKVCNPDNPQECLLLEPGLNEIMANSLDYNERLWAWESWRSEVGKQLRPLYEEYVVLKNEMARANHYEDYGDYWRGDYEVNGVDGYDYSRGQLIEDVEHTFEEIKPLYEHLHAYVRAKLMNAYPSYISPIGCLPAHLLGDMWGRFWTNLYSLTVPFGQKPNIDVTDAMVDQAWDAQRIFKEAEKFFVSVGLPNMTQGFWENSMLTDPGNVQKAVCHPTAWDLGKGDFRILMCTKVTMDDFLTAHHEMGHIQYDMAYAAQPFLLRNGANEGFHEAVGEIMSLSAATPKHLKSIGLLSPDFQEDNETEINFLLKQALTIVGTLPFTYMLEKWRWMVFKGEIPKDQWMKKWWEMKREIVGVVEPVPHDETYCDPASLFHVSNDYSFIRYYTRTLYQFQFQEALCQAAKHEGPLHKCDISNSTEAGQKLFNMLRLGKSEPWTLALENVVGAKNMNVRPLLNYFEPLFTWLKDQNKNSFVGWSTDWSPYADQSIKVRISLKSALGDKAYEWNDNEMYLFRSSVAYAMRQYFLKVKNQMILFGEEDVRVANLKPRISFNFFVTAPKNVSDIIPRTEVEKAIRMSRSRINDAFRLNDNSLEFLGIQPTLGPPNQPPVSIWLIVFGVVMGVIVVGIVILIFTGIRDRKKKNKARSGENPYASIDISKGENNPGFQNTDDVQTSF

5-HT2B (h) = 5-HT2B (h) (Homo sapiens, UniProt P41595); experiment: 5-HT2B (h) (agonist radioligand) binding assay
Chain of 5-HT2B (h) (P41595 whole entry): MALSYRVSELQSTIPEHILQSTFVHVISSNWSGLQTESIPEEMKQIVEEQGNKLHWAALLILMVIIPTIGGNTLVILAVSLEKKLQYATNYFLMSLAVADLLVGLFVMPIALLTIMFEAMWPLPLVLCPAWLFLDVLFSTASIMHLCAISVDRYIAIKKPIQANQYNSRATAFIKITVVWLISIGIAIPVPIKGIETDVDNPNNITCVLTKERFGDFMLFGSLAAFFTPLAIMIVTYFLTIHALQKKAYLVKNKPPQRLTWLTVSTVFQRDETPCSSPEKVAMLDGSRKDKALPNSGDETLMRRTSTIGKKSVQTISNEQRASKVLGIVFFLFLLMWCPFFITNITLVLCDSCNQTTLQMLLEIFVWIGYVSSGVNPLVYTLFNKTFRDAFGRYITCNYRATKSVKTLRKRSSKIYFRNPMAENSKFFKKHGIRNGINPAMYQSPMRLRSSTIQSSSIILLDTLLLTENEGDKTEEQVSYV

[4] = biological target: enzyme and uptake assay panel targets (Table 36) (Homo sapiens, UniProt O00408); experiment: biochemical; assay type: biochemical; details: PDE2A1 (h); reference compound
Chain of enzyme and uptake assay panel targets (Table 36) (Homo sapiens, UniProt O00408) (O00408 whole entry): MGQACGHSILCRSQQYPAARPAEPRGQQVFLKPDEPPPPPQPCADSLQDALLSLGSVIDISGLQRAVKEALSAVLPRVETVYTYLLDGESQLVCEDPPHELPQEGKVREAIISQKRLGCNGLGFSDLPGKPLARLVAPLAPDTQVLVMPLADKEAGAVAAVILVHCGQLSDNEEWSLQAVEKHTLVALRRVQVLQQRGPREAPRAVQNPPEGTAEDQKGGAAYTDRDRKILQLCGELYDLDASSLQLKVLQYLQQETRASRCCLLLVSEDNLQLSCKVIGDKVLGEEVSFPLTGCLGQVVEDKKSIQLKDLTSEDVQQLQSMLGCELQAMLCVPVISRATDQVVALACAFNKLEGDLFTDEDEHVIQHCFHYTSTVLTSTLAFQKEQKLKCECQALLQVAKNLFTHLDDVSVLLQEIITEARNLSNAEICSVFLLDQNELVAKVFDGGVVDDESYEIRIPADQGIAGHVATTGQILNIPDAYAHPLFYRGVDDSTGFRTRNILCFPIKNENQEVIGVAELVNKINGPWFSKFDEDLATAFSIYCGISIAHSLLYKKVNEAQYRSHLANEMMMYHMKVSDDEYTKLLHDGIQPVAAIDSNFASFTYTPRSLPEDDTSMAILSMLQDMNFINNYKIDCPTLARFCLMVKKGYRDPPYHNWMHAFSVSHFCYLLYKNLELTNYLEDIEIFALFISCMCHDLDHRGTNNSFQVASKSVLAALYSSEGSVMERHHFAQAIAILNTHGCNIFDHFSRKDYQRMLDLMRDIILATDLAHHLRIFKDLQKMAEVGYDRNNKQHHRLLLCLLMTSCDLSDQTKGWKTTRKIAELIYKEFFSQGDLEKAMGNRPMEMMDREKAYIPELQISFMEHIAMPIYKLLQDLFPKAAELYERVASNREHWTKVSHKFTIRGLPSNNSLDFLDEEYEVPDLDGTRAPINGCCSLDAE

[5] = Example 13, CFDA, 10 μM hydrogen peroxide, 5 h, 0.1 to 300 μM tested
[6] = Example 13, PI, 10 μM hydrogen peroxide, 5 h, 0.1 to 300 μM tested
[7] = 0.1 μM + 10 μM hydrogen peroxide, 5 hours
[8] = 1 μM + 10 μM hydrogen peroxide, 5 hours
[9] = 10 μM + 10 μM hydrogen peroxide, 5 hours
[10] = 100 μM + 10 μM hydrogen peroxide, 5 hours
[11] = 300 μM + 10 μM hydrogen peroxide, 5 hours
[12] = 0.1 μM + 10 μM hydrogen peroxide
[13] = 10 μM + 10 μM hydrogen peroxide
[14] = 100 μM + 10 μM hydrogen peroxide
[15] = 300 μM + 10 μM hydrogen peroxide

Compound | Neuronal viability (CFDA), % of Control (rat hippocampal cultures [1]; [7]) | Neuronal viability (CFDA), Mean (rat hippocampal cultures [1]; [7]) | Neuronal viability (CFDA), % of Control (rat hippocampal cultures [1]; [8]) | Neuronal viability (CFDA), Mean (rat hippocampal cultures [1]; [8]) | Neuronal viability (CFDA), % of Control (rat hippocampal cultures [1]; [9]) | Neuronal viability (CFDA), Mean (rat hippocampal cultures [1]; [9]) | Neuronal viability (CFDA), % of Control (rat hippocampal cultures [1]; [10]) | Neuronal viability (CFDA), Mean (rat hippocampal cultures [1]; [10]) | Neuronal viability (CFDA), % of Control (rat hippocampal cultures [1]; [11]) | Neuronal viability (CFDA), Mean (rat hippocampal cultures [1]; [11]) | Cell death (Propidium Iodide), % of Control (rat hippocampal cultures [2]; [12]) | Cell death (Propidium Iodide), Mean (rat hippocampal cultures [2]; [12]) | Cell death (Propidium Iodide), individual values (rat hippocampal cultures [2]; [12]) | Cell death (Propidium Iodide), % of Control (rat hippocampal cultures [2]; 1 μM + 10 μM hydrogen peroxide) | Cell death (Propidium Iodide), Mean (rat hippocampal cultures [2]; 1 μM + 10 μM hydrogen peroxide) | Cell death (Propidium Iodide), individual values (rat hippocampal cultures [2]; 1 μM + 10 μM hydrogen peroxide) | Cell death (Propidium Iodide), % of Control (rat hippocampal cultures [2]; [13]) | Cell death (Propidium Iodide), Mean (rat hippocampal cultures [2]; [13]) | Cell death (Propidium Iodide), individual values (rat hippocampal cultures [2]; [13]) | Cell death (Propidium Iodide), % of Control (rat hippocampal cultures [2]; [14]) | other results
CC(C)(O)c1nc2ccccc2nc1N [ALD-2] |  |  |  |  |  |  |  |  |  |  |  |  |  |  |  |  |  |  |  |  | EC50 ± SE (rat hippocampal cultures [1]; [5]): Inactive; Full Efficacy Concentration (rat hippocampal cultures [1]; [5]): Inactive; No effect Concentration (rat hippocampal cultures [1]; [5]): Inactive; EC50 ± SE (rat hippocampal cultures [2]; [6]): Inactive; Full Efficacy Concentration (rat hippocampal cultures [2]; [6]): Inactive; No effect Concentration (rat hippocampal cultures [2]; [6]): Inactive; protection from cell death (rat hippocampal cultures [2]; PI, 0.1 to 300 μM, 10 μM hydrogen peroxide, 5 h): no statistically significant protection from cell death; also recorded: did not produce statistically significant protection from cell death
CC(=O)NCC(=O)N[C@@H](CC(=O)O)C(=O)N[C@@H](Cc1ccc(O)cc1)C(=O)N[C@@H](CO)C(=O)N[C@@H](Cc1c[nH]cn1)C(=O)N[C@H]1CSSC[C@@H](C(=O)N[C@H](C(=O)N[C@@H](Cc2ccc(O)cc2)C(=O)N2CCC[C@H]2C(=O)N[C@@H](CC(=O)O)C(=O)N2CCC[C@H]2C(=O)N[C@@H](CCC(=O)O)C(=O)NCC(=O)NCC(=O)NCC(N)=O)[C@@H](C)O)NC(=O)[C@H](CCCCN)NC(=O)[C@H](Cc2c[nH]c3ccccc23)NC(=O)[C@H](Cc2c[nH]c3ccccc23)NC(=O)[C@@H]2CCCN2C(=O)[C@H](Cc2ccc(O)cc2)NC(=O)[C@H](Cc2ccc(O)cc2)NC(=O)[C@H](CCCNC(=N)N)NC(=O)[C@H](CC(C)C)NC(=O)[C@@H]2CCCN2C(=O)[C@H](CO)NC1=O [Ac-GG-26-NH2] |  |  |  |  |  |  |  |  |  |  |  |  |  |  |  |  |  |  |  |  | IC50 [3]: 290 nM; nH [3]: 2.4
COc1cc(CC(C)N)c(OC)cc1I (racemic) [(±)DO1] |  |  |  |  |  |  |  |  |  |  |  |  |  |  |  |  |  |  |  |  | IC50 (5-HT2B (h)): 6.9 nM; nH (5-HT2B (h)): 0.9
CCCCCC[C@@H]([C@@H](C)O)n1cnc2c(N)ncnc21 (racemic) [EHNA] |  |  |  |  |  |  |  |  |  |  |  |  |  |  |  |  |  |  |  |  | IC50 [4]: 1100 nM; nH [4]: 0.8
[2H]C([2H])([2H])C(O)(c1nc2ccc(Cl)cc2cc1N)C([2H])([2H])[2H] [ALD6] | 59 ± 3% | 34394 | 65 ± 5% | 38055 | 83 ± 4% | 48055* | 98 ± 4% | 57123* | 98 ± 4% | 56976* | 165 ± 15% | 273 | 294 and 242 and 356 and 225 and 250 | 120 ± 5% | 198* | 223 and 183 (2×) and 189 and 214 | 107 ± 5% | 176* | 189 (2×) and 139 and 179 and 183 | 108 ± 7% | Neuronal viability (CFDA), individual values (rat hippocampal cultures [1]; [11]): 53184 (3×) and 59551 and 65778; Cell death (Propidium Iodide), Mean (rat hippocampal cultures [2]; [14]): 178*; Cell death (Propidium Iodide), individual values (rat hippocampal cultures [2]; [14]): 206 and 189 and 135 and 167 and 193; Cell death (Propidium Iodide), % of Control (rat hippocampal cultures [2]; [15]): 107 ± 6%; Cell death (Propidium Iodide), Mean (rat hippocampal cultures [2]; [15]): 176*; Cell death (Propidium Iodide), individual values (rat hippocampal cultures [2]; [15]): 189 (2×) and 147 and 197 and 159
CC(C)(O)c1nc2ncccc2cc1N [ALD5] | 69 ± 1% | 38942 | 66 ± 3% | 37447 | 65 ± 3% | 36940 | 66 ± 4% | 37605 | 74 ± 1% | 42249 | 202 ± 15% | 301 | 225 and 325 and 294 (2×) and 366 | 196 ± 1% | 292 | 285 and 294 (4×) | 191 ± 11% | 285 | 294 (3×) and 320 and 225 | 181 ± 7% | Cell death (Propidium Iodide), Mean (rat hippocampal cultures [2]; [14]): 269; Cell death (Propidium Iodide), individual values (rat hippocampal cultures [2]; [14]): 250 (2×) and 294 (2×) and 255; Cell death (Propidium Iodide), % of Control (rat hippocampal cultures [2]; [15]): 205 ± 8%; Cell death (Propidium Iodide), Mean (rat hippocampal cultures [2]; [15]): 305; Cell death (Propidium Iodide), individual values (rat hippocampal cultures [2]; [15]): 294 (3×) and 293 and 352
